From PubChem BioAssay (NCI)
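How tested: cells in 96-well plates exposed to compound for 48 hours at five concentrations. TGI denotes the concentration required for complete inhibition of growth.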

Columns and labels:
Experiment in all cases: NCI tumour cell line growth inhibition, 48 h
[1] = system: 786-0 renal
[2] = system: A498 renal
[3] = system: A549 NSCLC
[4] = system: ACHN renal
[5] = system: BT-549 breast
[6] = system: CAKI-1 renal
[7] = system: CCRF-CEM leukemia
[8] = system: COLO 205 colon
[9] = system: EKVX NSCLC
[10] = system: HCC-2998 colon
[11] = system: HCT-116 colon
[12] = system: HCT-15 colon
[13] = system: HOP-62 NSCLC
[14] = system: HOP-92 NSCLC
[15] = system: HS 578T breast
[16] = system: HT29 colon
[17] = system: IGROV1 ovarian
[18] = system: K-562 leukemia
[19] = system: KM12 colon
[20] = system: LOX IMVI melanoma
[21] = system: M14 melanoma
[22] = system: MALME-3M melanoma
[23] = system: MCF7 breast
[24] = system: MDA-MB-231 breast
[25] = system: MDA-MB-435
[26] = system: MDA-N
[27] = system: MOLT-4 leukemia
[28] = system: NCI-H226 lung
[29] = system: NCI-H23 lung
[30] = system: NCI-H460 lung
[31] = system: NCI-H522 lung
[32] = system: NCI/ADR-RES ovarian
[33] = system: OVCAR-3 ovarian
[34] = system: OVCAR-4 ovarian
[35] = system: OVCAR-5 ovarian
[36] = system: OVCAR-8 ovarian
[37] = system: PC-3 prostate
[38] = system: RPMI-8226 leukemia
[39] = system: RXF 393 renal
[40] = system: SF-268 CNS
[41] = system: SF-295 CNS
[42] = system: SF-539 CNS
[43] = system: SK-MEL-2 melanoma
[44] = system: SK-MEL-5 melanoma
[45] = system: SK-OV-3 ovarian
[46] = system: SN12C renal
[47] = system: SNB-19 CNS
[48] = system: SNB-75 CNS
[49] = system: SR leukemia
[50] = system: SW-620 colon
[51] = system: T-47D breast
[52] = system: TK-10 renal
[53] = system: U251 CNS
[54] = system: UACC-257 melanoma
[55] = system: UACC-62 melanoma
[56] = system: UO-31 renal
[57] = system: DU-145 prostate
[58] = system: HL-60(TB) leukemia
[59] = system: SK-MEL-28 melanoma

## Cn1c(=O)c2c(-c3ccccc3)onc2n(C)c1=O
[1]
  TGI: 86.5 µM
[2]
  TGI: > 100 µM
[3]
  TGI: > 100 µM
[4]
  TGI: > 100 µM
[5]
  TGI: 45.2 µM
[6]
  TGI: > 100 µM
[7]
  TGI: 77.9 µM
[8]
  TGI: > 100 µM
[9]
  TGI: > 100 µM
[10]
  TGI: 90.2 µM
[11]
  TGI: > 100 µM
[12]
  TGI: > 100 µM
[13]
  TGI: > 100 µM
[14]
  TGI: > 100 µM
[15]
  TGI: 75.6 µM
[16]
  TGI: > 100 µM
[17]
  TGI: 55.3 µM
[18]
  TGI: > 100 µM
[19]
  TGI: > 100 µM
[20]
  TGI: 70.1 µM
[21]
  TGI: > 100 µM
[22]
  TGI: > 100 µM
[23]
  TGI: > 100 µM
[24]
  TGI: > 100 µM
[25]
  TGI: > 100 µM
[26]
  TGI: > 100 µM
[27]
  TGI: 81.5 µM
[28]
  TGI: > 100 µM
[29]
  TGI: 41.6 µM
[30]
  TGI: > 100 µM
[31]
  TGI: > 100 µM
[32]
  TGI: > 100 µM
[33]
  TGI: 53.1 µM
[34]
  TGI: > 100 µM
[35]
  TGI: > 100 µM
[36]
  TGI: > 100 µM
[37]
  TGI: > 100 µM
[38]
  TGI: 57.6 µM
[39]
  TGI: > 100 µM
[40]
  TGI: > 100 µM
[41]
  TGI: > 100 µM
[42]
  TGI: > 100 µM
[43]
  TGI: 81.8 µM
[44]
  TGI: > 100 µM
[45]
  TGI: > 100 µM
[46]
  TGI: > 100 µM
[47]
  TGI: > 100 µM
[48]
  TGI: > 100 µM
[49]
  TGI: 75.2 µM
[50]
  TGI: > 100 µM
[51]
  TGI: > 100 µM
[52]
  TGI: 42.9 µM
[53]
  TGI: > 100 µM
[54]
  TGI: > 100 µM
[55]
  TGI: > 100 µM
[56]
  TGI: > 100 µM

## Cc1cccc(C(C)(C)C)c1NC(=O)/C(Cc1nc2ccc([N+](=O)[O-])cc2[nH]c1=O)=N/NC(=O)C[N+](C)(C)C
[1]
  TGI: > 100 µM
[2]
  TGI: > 100 µM
[3]
  TGI: > 100 µM
[4]
  TGI: > 100 µM
[5]
  TGI: > 100 µM
[6]
  TGI: > 100 µM
[8]
  TGI: > 100 µM
[57]
  TGI: > 100 µM
[9]
  TGI: > 100 µM
[10]
  TGI: > 100 µM
[11]
  TGI: > 100 µM
[12]
  TGI: > 100 µM
[58]
  TGI: > 100 µM
[14]
  TGI: > 100 µM
[15]
  TGI: > 100 µM
[16]
  TGI: > 100 µM
[17]
  TGI: > 100 µM
[18]
  TGI: > 100 µM
[19]
  TGI: > 100 µM
[20]
  TGI: > 100 µM
[21]
  TGI: > 100 µM
[22]
  TGI: > 100 µM
[23]
  TGI: > 100 µM
[24]
  TGI: > 100 µM
[25]
  TGI: > 100 µM
[26]
  TGI: > 100 µM
[27]
  TGI: > 100 µM
[28]
  TGI: > 100 µM
[29]
  TGI: > 100 µM
[30]
  TGI: > 100 µM
[31]
  TGI: > 100 µM
[32]
  TGI: > 100 µM
[33]
  TGI: > 100 µM
[34]
  TGI: > 100 µM
[35]
  TGI: > 100 µM
[36]
  TGI: > 100 µM
[37]
  TGI: > 100 µM
[38]
  TGI: > 100 µM
[40]
  TGI: > 100 µM
[41]
  TGI: > 100 µM
[42]
  TGI: > 100 µM
[43]
  TGI: > 100 µM
[59]
  TGI: > 100 µM
[44]
  TGI: > 100 µM
[45]
  TGI: > 100 µM
[46]
  TGI: > 100 µM
[47]
  TGI: > 100 µM
[48]
  TGI: > 100 µM
[50]
  TGI: > 100 µM
[51]
  TGI: > 100 µM
[53]
  TGI: > 100 µM
[54]
  TGI: > 100 µM
[55]
  TGI: > 100 µM
[56]
  TGI: > 100 µM

## COC(=O)C1=C(O)C(C(=O)OC)[C@@]2(O)[C@@H](C(=O)OC)C(c3ccc(OC(=O)/C(=C/c4ccc(Cl)cc4)c4ccc(Cl)cc4)cc3)C[C@@H]1[C@@H]2C(=O)OC (stereo partly specified)
[1]
  TGI: > 100 µM
[2]
  TGI: > 100 µM
[3]
  TGI: > 100 µM
[4]
  TGI: > 100 µM
[5]
  TGI: > 100 µM
[6]
  TGI: 85.9 µM
[7]
  TGI: > 100 µM
[8]
  TGI: 92.6 µM
[57]
  TGI: > 100 µM
[9]
  TGI: > 100 µM
[11]
  TGI: > 100 µM
[12]
  TGI: > 100 µM
[58]
  TGI: > 100 µM
[13]
  TGI: > 100 µM
[14]
  TGI: > 100 µM
[15]
  TGI: > 100 µM
[16]
  TGI: > 100 µM
[17]
  TGI: > 100 µM
[18]
  TGI: > 100 µM
[19]
  TGI: > 100 µM
[20]
  TGI: 38.1 µM
[21]
  TGI: 41.8 µM
[22]
  TGI: > 100 µM
[23]
  TGI: > 100 µM
[24]
  TGI: 82.8 µM
[25]
  TGI: > 100 µM
[26]
  TGI: 51.9 µM
[27]
  TGI: > 100 µM
[28]
  TGI: 63.9 µM
[29]
  TGI: > 100 µM
[30]
  TGI: > 100 µM
[31]
  TGI: > 100 µM
[32]
  TGI: > 100 µM
[33]
  TGI: > 100 µM
[34]
  TGI: > 100 µM
[35]
  TGI: > 100 µM
[36]
  TGI: > 100 µM
[37]
  TGI: > 100 µM
[39]
  TGI: > 100 µM
[40]
  TGI: > 100 µM
[41]
  TGI: > 100 µM
[42]
  TGI: 24.6 µM
[43]
  TGI: 38.2 µM
[59]
  TGI: > 100 µM
[44]
  TGI: > 100 µM
[45]
  TGI: > 100 µM
[46]
  TGI: > 100 µM
[47]
  TGI: > 100 µM
[48]
  TGI: > 100 µM
[49]
  TGI: > 100 µM
[50]
  TGI: > 100 µM
[51]
  TGI: > 100 µM
[52]
  TGI: 73.7 µM
[53]
  TGI: > 100 µM
[54]
  TGI: > 100 µM
[55]
  TGI: 24 µM
[56]
  TGI: 34.1 µM

## CC(C)(CO)CNc1nc(N)nc(Cl)c1N
[1]
  TGI: > 100 µM
[3]
  TGI: > 100 µM
[4]
  TGI: > 100 µM
[5]
  TGI: > 100 µM
[6]
  TGI: > 100 µM
[7]
  TGI: > 100 µM
[8]
  TGI: > 100 µM
[57]
  TGI: > 100 µM
[9]
  TGI: > 100 µM
[10]
  TGI: > 100 µM
[11]
  TGI: > 100 µM
[12]
  TGI: > 100 µM
[13]
  TGI: > 100 µM
[14]
  TGI: > 100 µM
[15]
  TGI: > 100 µM
[16]
  TGI: > 100 µM
[17]
  TGI: > 100 µM
[18]
  TGI: > 100 µM
[19]
  TGI: > 100 µM
[20]
  TGI: > 100 µM
[22]
  TGI: > 100 µM
[23]
  TGI: > 100 µM
[24]
  TGI: > 100 µM
[25]
  TGI: > 100 µM
[26]
  TGI: > 100 µM
[27]
  TGI: > 100 µM
[28]
  TGI: > 100 µM
[29]
  TGI: > 100 µM
[30]
  TGI: > 100 µM
[31]
  TGI: > 100 µM
[32]
  TGI: > 100 µM
[33]
  TGI: > 100 µM
[34]
  TGI: > 100 µM
[35]
  TGI: > 100 µM
[36]
  TGI: > 100 µM
[37]
  TGI: > 100 µM
[39]
  TGI: > 100 µM
[40]
  TGI: > 100 µM
[41]
  TGI: > 100 µM
[42]
  TGI: > 100 µM
[43]
  TGI: > 100 µM
[59]
  TGI: > 100 µM
[44]
  TGI: > 100 µM
[45]
  TGI: > 100 µM
[46]
  TGI: > 100 µM
[47]
  TGI: > 100 µM
[48]
  TGI: > 100 µM
[50]
  TGI: > 100 µM
[51]
  TGI: > 100 µM
[52]
  TGI: > 100 µM
[53]
  TGI: > 100 µM
[54]
  TGI: > 100 µM
[55]
  TGI: > 100 µM
[56]
  TGI: > 100 µM
